Experimental data: patent US8686022B2, “7-(piperazine-1-ymethyl)-1H-indole-2-carboxylic acid (phenyl)-amide derivatives and allied compounds as p38 MAP kinase inhibitors for the treatment of respiratory diseases” (Boehringer Ingelheim International GmbH, priority 2008, dated 2014)
≈ marks a conversion by molar mass, not a printed value.

Key:
[1] = Determining the solubility (saturated solution in McIlvaine buffer pH 7.4, UV spectroscopy); type: physicochemical; conditions: pH 7.4, aqueous buffer, thermodynamic from solid, shaken 2 hours, 0.75 mg solid in 0.75 ml
Method: Determining the Solubility:
Saturated solutions are prepared in suitable well dishes by adding 0.75 ml of a McIlvaine buffer (pH 7.4) to the well in question containing 0.75 mg of solid of an active substance. The wells are shaken for 2 hours and then filtration is carried out through a suitable filter membrane (typically polytetrafluoroethylene with a pore size of 0.45 μm). Filter absorption is prevented by discarding the first few drops of filtrate. The amount of active substance dissolved is determined by UV spectroscopy.

[2] = target: cytochrome P450 2C9 (Homo sapiens, UniProt P11712); test: Determining the cyp2C9 activity (O-demethylation of [O-methyl-14C]-naproxen); type: in vitro ADME; conditions: human recombinant cytochrome P450 2C9; 37° C.; <0.4 μM when inhibition >50% at lowest concentration; read-out: CYP 2C9 IC50
Method: Determining the cyp2C9 Activity:
The assay is carried out in a robot system with 96-well plates. The final incubation volume is 200 μl of TRIS-Puffer (0.1 M), magnesium chloride (5 mM), recombinant protein (40 pmol/ml), ^14C-labelled naproxen (80 μM) and the test compound in one of 4 concentrations (50 μM, 10 μM, 2 μM and 0.4 μM) as a duplicate in each case. After a short preincubation period the reactions are started by the addition of the cofactor (NADPH, 1 mM) and ended after 15 min by the addition of 50 μl of a 10% aqueous trichloroacetic acid solution. One aliquot of the incubate is transferred onto a 96-well solid phase extraction plate and extracted. The ^14C-formaldehyde formed during the reaction is not retained on the solid phase extraction plate and is thus separated from the unmetabolised substrate by washing the solid phase extraction plate with water. One aliquot of the eluate is transferred into a well plate suitable for liquid scintillation. […] The IC50 is determined by the least squares method using the following formula: control activity=(100% control activity/(1+(I/IC50)S))−B where I=Inhibitor concentration S=Pitch B=Background activity
When the inhibition of the reaction is >50% even at the lowest concentration of the test compound, the IC50 is given as <0.4 μM.

[3] = target: p38 MAP-kinase (Homo sapiens, UniProt Q16539); test: p38 MAP-kinase enzymatic assay (phosphorylation of GST-tagged ATF2, chemoluminescence); type: biochemical; conditions: inhibitor concentration 1 μM; activated p38 MAP-kinase 1 nM; ATP 100 μM; read-out: p38 (% Inh @ 1 μM)
Method: In this, the amount of a substrate phosphorylated by the kinase is quantified. The test is carried out as follows:
The kinase reaction is carried out in the presence of HEPES (20 mM, pH 7), MgCl2 (10 mM), DTT (1 mM) and TWEEN20 (0.01%). First, dimethylsulphoxide or inhibitor (final concentration: 1 μM) dissolved in dimethylsulphoxide are placed in a reaction vessel. Then the activated p38 MAP-kinase (final concentration 1 nM) is added and the mixture is incubated for 4 h at ambient temperature. Then a mixture of substrate (GST-tagged ATF2) and ATP is added and everything is incubated together for a further hour (final concentration ATP: 100 μM; final concentration ATF2: 10 nM).
The concentration of phosphorylated ATF2 is quantified by chemoluminescence-induced light emission. For this, a glutathione donor bead (final concentration: 5 μg/ml) which binds to the gluthathione on the ATF2 and phospho-ATF2 antibodies are added to the reaction mixture (final concentration: 3 nM; this binds the phosphate group added by the kinase reaction) to which a Protein A Acceptor Bead (final concentration: 5 μg/ml) binds. These components are dissolved in a buffer which contains 20 mM HEPES pH 7.0, 200 mM NaCL, 80 mM EDTA as well as 0.3% BSA. This reaction mixture is incubated in the dark for 1 hour at ambient temperature. When these beads come physically close, visible light is emitted which is measured in a photometer at 520-620 nm.
To determine the inhibitory activity of the compounds according to the invention a calculation is made to determine the percentage by which the kinase activity is inhibited at a fixed inhibitor concentration of 1 μM. The maximum activity is determined by non-inhibited kinase. The minimum activity or nonspecific background activity is determined using a reaction mixture without kinase.
Table 2 summarises the degree of inhibition of the enzyme p38 MAP-kinase—as described hereinbefore—mediated by the compounds according to the invention detailed in the section “Preparation of the final compounds”.

Sequence of cytochrome P450 2C9 (P11712 whole entry): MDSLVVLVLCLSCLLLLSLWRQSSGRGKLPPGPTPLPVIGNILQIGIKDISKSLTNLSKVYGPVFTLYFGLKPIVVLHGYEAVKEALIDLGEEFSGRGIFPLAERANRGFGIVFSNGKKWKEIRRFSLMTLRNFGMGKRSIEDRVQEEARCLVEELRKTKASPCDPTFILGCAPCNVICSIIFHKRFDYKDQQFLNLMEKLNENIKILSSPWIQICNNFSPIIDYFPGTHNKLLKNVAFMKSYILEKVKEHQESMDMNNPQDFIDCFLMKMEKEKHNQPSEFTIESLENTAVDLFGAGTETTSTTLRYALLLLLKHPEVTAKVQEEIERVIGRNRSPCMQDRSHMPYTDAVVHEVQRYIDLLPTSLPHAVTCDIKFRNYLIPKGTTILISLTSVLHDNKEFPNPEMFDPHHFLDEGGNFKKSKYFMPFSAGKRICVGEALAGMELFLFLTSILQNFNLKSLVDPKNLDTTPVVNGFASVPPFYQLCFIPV
Sequence of p38 MAP-kinase (Q16539 whole entry): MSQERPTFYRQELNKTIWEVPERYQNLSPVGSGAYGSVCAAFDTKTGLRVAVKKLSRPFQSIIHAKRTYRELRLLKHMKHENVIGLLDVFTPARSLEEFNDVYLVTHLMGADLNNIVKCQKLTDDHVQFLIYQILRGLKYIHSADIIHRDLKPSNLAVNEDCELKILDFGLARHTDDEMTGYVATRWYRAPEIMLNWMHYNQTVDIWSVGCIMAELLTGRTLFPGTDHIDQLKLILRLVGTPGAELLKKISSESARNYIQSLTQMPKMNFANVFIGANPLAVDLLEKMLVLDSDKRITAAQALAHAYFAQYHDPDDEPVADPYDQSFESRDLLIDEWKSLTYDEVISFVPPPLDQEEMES

| solubility at 2 h [1] [µg/mL] | IC50 [2] [µM] | inhibition at 1 µM [3] [%] | SMILES |
| --- | --- | --- | --- |
| > 1000 | 0.7 | 98.9 | COc1c(NC(=O)c2cc3cccc(CN4CCN(C(=O)CN5CC[C@@H](N(C)C)C5)CC4)c3n2C)cc(C(C)(C)C)cc1NS(C)(=O)=O [6(2), (R)-7-{4-[2-(3-dimethylamino-pyrrolidin-1-yl)-acetyl]-piperazin-1-ylmethyl}-1-methyl-1H-indole-2-carboxylic acid-(5-tert-butyl-3-methanesulphonylamino-2-methoxy-phenyl)-amide] |
| 910 (≈ 1330 µM) | 2.93 | 98.5 | COc1c(NC(=O)c2cc3cccc(CN4CCN(C(=O)CN5CC[C@H](N(C)C)C5)CC4)c3n2C)cc(C(C)(C)C)cc1NS(C)(=O)=O [6(3), (S)-7-{4-[2-(3-dimethylamino-pyrrolidin-1-yl)-acetyl]-piperazin-1-ylmethyl}-1-methyl-1H-indole-2-carboxylic acid-(5-tert-butyl-3-methanesulphonylamino-2-methoxy-phenyl)-amide] |
| 120 (≈ 180 µM) | 6.48 | 98.1 | COc1c(NC(=O)c2cc3cccc(CN4CCCN(C(=O)C5CCN(C)CC5)CC4)c3n2C)cc(C(C)(C)C)cc1NS(C)(=O)=O [8(1), 1-methyl-7-[4-(1-methyl-piperidine-4-carbonyl)-[1,4]diazepan-1-ylmethyl]-1H-indole-2-carboxylic acid-(5-tert-butyl-3-methanesulphonylamino-2-methoxy-phenyl)-amide] |
| 120 (≈ 188 µM) | 5.77 | 99.5 | COc1c(NC(=O)c2cc3cccc(CN4CCN(C(=O)[C@@H]5CCCN5C)CC4)c3n2C)cc(CC(C)C)cc1NS(C)(=O)=O [8(2), (S)-1-methyl-7-[4-(1-methyl-pyrrolidine-2-carbonyl)-piperazin-1-ylmethyl]-1H-indole-2-carboxylic acid-(5-isobutyl-3-methanesulphonylamino-2-methoxy-phenyl)-amide] |
| 570 (≈ 865 µM) | 6.7 | 95.8 | COc1c(CN(C(C)C)C(C)C)cc(C(C)(C)C)cc1NC(=O)c1cc2cccc(CN3CCN(C(=O)[C@@H]4CCCN4C)CC3)c2n1C [9(1), (S)-1-methyl-7-[4-(1-methyl-pyrrolidine-2-carbonyl)-piperazin-1-ylmethyl]-1H-indole-2-carboxylic acid-{5-tert-butyl-3-[(diisopropylamino)-methyl]-2-methoxy-phenyl}-amide] |
| 860 (≈ 1360 µM) | 7.76 | 98.2 | CCN(CC)Cc1cc(C(C)(C)C)cc(NC(=O)c2cc3cccc(CN4CCN(C(=O)[C@@H]5CCCN5C)CC4)c3n2C)c1OC [9(2), (S)-1-methyl-7-[4-(1-methyl-pyrrolidine-2-carbonyl)-piperazin-1-ylmethyl]-1H-indole-2-carboxylic acid-(5-tert-butyl-3-diethylaminomethyl-2-methoxy-phenyl)-amide] |
| 700 (≈ 1020 µM) | 6.84 | 98.9 | COc1c(CN2CCCC(N(C)C)C2)cc(C(C)(C)C)cc1NC(=O)c1cc2cccc(CN3CCN(C(=O)[C@@H]4CCCN4C)CC3)c2n1C (stereo partly drawn) [9(3), 1-methyl-7-[4-((2S)-1-methyl-pyrrolidine-2-carbonyl)-piperazin-1-ylmethyl]-1H-indole-2-carboxylic acid-[5-tert-butyl-3-(3-dimethylamino-piperidin-1-ylmethyl)-2-methoxy-phenyl]-amide] |
| 690 (≈ 986 µM) | 8.11 | 98 | CCN(CC)C1CCN(Cc2cc(C(C)(C)C)cc(NC(=O)c3cc4cccc(CN5CCN(C(=O)[C@@H]6CCCN6C)CC5)c4n3C)c2OC)C1 (stereo partly drawn) [9(4), 1-methyl-7-[4-((2S)-1-methyl-pyrrolidine-2-carbonyl)-piperazin-1-ylmethyl]-1H-indole-2-carboxylic acid-[5-tert-butyl-3-(3-diethylamino-pyrrolidin-1-ylmethyl)-2-methoxy-phenyl]-amide] |
| 490 (≈ 714 µM) | 6.88 | 97.5 | COc1c(CN2CCC(N(C)C)CC2)cc(C(C)(C)C)cc1NC(=O)c1cc2cccc(CN3CCN(C(=O)[C@@H]4CCCN4C)CC3)c2n1C [9(5), (S)-1-methyl-7-[4-(1-methyl-pyrrolidine-2-carbonyl)-piperazin-1-ylmethyl]-1H-indole-2-carboxylic acid-[5-tert-butyl-3-(4-dimethylamino-piperidin-1-ylmethyl)-2-methoxy-phenyl]-amide] |
| 470 (≈ 658 µM) | 10.4 | 97.7 | CCN(CC)C1CCN(Cc2cc(C(C)(C)C)cc(NC(=O)c3cc4cccc(CN5CCN(C(=O)[C@@H]6CCCN6C)CC5)c4n3C)c2OC)CC1 [9(6), (S)-1-methyl-7-[4-(1-methyl-pyrrolidine-2-carbonyl)-piperazin-1-ylmethyl]-1H-indole-2-carboxylic acid-[5-tert-butyl-3-(4-diethylamino-piperidin-1-ylmethyl)-2-methoxy-phenyl]-amide] |
| 880 (≈ 1280 µM) | 44.7 | 98.8 | COc1c(CN2CCN(C(C)C)CC2)cc(C(C)(C)C)cc1NC(=O)c1cc2cccc(CN3CCN(C(=O)[C@@H]4CCCN4C)CC3)c2n1C [9(7), (S)-1-methyl-7-[4-(1-methyl-pyrrolidine-2-carbonyl)-piperazin-1-ylmethyl]-1H-indole-2-carboxylic acid-[5-tert-butyl-3-(4-isopropyl-piperazin-1-ylmethyl)-2-methoxy-phenyl]-amide] |
| 380 (≈ 602 µM) | 1.29 | 99.1 | COc1c(NC(=O)c2cc3cccc(CN4CCN(C(=O)[C@@H]5CCCN5C)CC4)c3n2C)cc(C(C)(C)C)cc1C(=O)NC(C)C [10(1), (S)-1-methyl-7-[4-(1-methyl-pyrrolidine-2-carbonyl)-piperazin-1-ylmethyl]-1H-indole-2-carboxylic acid-(5-tert-butyl-3-isopropylcarbamoyl-2-methoxy-phenyl)-amide] |
| 390 (≈ 632 µM) | 0.46 | 99.4 | CCNC(=O)c1cc(C(C)(C)C)cc(NC(=O)c2cc3cccc(CN4CCN(C(=O)[C@@H]5CCCN5C)CC4)c3n2C)c1OC [10(2), (S)-1-methyl-7-[4-(1-methyl-pyrrolidine-2-carbonyl)-piperazin-1-ylmethyl]-1H-indole-2-carboxylic acid-(5-tert-butyl-3-ethylcarbamoyl-2-methoxy-phenyl)-amide] |
| 590 (≈ 979 µM) | 1.6 | 99.3 | CNC(=O)c1cc(C(C)(C)C)cc(NC(=O)c2cc3cccc(CN4CCN(C(=O)[C@@H]5CCCN5C)CC4)c3n2C)c1OC [10(3), (S)-1-methyl-7-[4-(1-methyl-pyrrolidine-2-carbonyl)-piperazin-1-ylmethyl]-1H-indole-2-carboxylic acid-(5-tert-butyl-2-methoxy-3-methylcarbamoyl-phenyl)-amide] |
| 370 (≈ 628 µM) | 0.44 | 99.1 | COc1c(NC(=O)c2cc3cccc(CN4CCN(C(=O)[C@@H]5CCCN5C)CC4)c3n2C)cc(C(C)(C)C)cc1C(N)=O [10(4), (S)-1-methyl-7-[4-(1-methyl-pyrrolidine-2-carbonyl)-piperazin-1-ylmethyl]-1H-indole-2-carboxylic acid-(5-tert-butyl-3-carbamoyl-2-methoxy-phenyl)-amide] |
